Measured values taken from article PMC12152147, “DDB1 engagement defines the selectivity of S656 analogs for cyclin K degradation over CDK inhibition” (EMBO Reports, 2025).
“And” between values parts separate entries of the source, which are not always exact repeats. Equal values may be shown once. Read-outs that look alike come from different tables or passages of the source.

Columns and labels:
primary AML specimens = experiment: Dose-response assays in primary AML specimens (6 days, CellTiterGlo); format: cell-based, human; details: 6 days, read-out: IC50
Method: Freshly thawed primary AML specimens were used for chemical screens. Cryopreserved cells were thawed at 37 °C in IMDM containing 20% FBS and DNase I (100 μg/mL). Cells were resuspended in IMDM supplemented with 15% BIT (BSA, insulin, transferrin; StemCell Technologies), 100 ng/mL SCF, 50 ng/mL FLT3L, 20 ng/mL IL3, 20 ng/mL G-CSF, 10^−4 mol/L b-mercaptoethanol, gentamicin (50 μg/mL), ciprofloxacin (10 μg/mL), SR1 (500 nmol/L) and UM729 (500 nmol/L). Cells were plated in 384-well white plates, 5000 cells per well in 50 μL. Compounds were dissolved in DMSO, diluted in media immediately before use and added to seeded cells at the unique concentration of 1 μM. Control wells received DMSO (0.1%) only. Cell viability was evaluated after 6 days in culture using the CellTiterGlo assay according to the manufacturer’s instruction. Percentage of inhibition for dose response curves was calculated as 100 – (100 × (mean luminescence [compound]/mean luminescence [DMSO])). Dose response curves were generated using nonlinear regression in GraphPad Prism version.
Dose-response assays in primary AML specimens were performed as in chemical screen (see above) with the exception that compounds were tested in serial dilution (8 dilutions, 1:4, 10 μM down to 0.5 nM). Dose-response assays in OCI-AML5 cell line were conducted similarly with the following modifications: 300 cells per well were seeded in 50 μL of cell line media and cell viability was evaluated after 4 days in culture.

OCI-AML5 cells = experiment: Dose-response proliferative assay in OCI-AML5 (4 days, CellTiterGlo); format: cell-based, H. sapiens; details: OCI-AML5 cells; read-out: IC50 in AML5
How it was run: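 OCI-AML5 cells in αMEM, 10% heat-inactivated FBS plus 10 ng/mL GM-CSF, 300 cells/well, exposed to 8-point 1:4 serial dilutions (10 μM down to 0.5 nM). Viability read after 4 days in culture at 37 °C, 5% CO2.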

cyclin KeGFP = experiment: Cyclin KeGFP reporter system (eGFP/mCherry MFI by flow cytometry);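 as to % degradation cyclin K-eGFP: 10 μM compound for 3 h relative to DMSO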; format: cell-based, H. sapiens
How it was run: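 OCI-AML5 clone G7 carrying lentiviral cyclin KeGFP/mCherry reporter. eGFP and mCherry geometric MFI measured by flow cytometry; eGFP/mCherry ratio normalized to DMSO-treated cells.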

CDK12/Cyclin K = molecular target: T1, CDK12/Cyclin K (Homo sapiens, UniProt Q9NYV4); experiment: CDK12/CyclinK in vitro kinase assay (BPS kit, Kinase Glo MAX); format: biochemical; details: in % (unit assumed)
T1 construct: purchased BPS Bioscience 78298
T1 sequence (Q9NYV4 whole entry): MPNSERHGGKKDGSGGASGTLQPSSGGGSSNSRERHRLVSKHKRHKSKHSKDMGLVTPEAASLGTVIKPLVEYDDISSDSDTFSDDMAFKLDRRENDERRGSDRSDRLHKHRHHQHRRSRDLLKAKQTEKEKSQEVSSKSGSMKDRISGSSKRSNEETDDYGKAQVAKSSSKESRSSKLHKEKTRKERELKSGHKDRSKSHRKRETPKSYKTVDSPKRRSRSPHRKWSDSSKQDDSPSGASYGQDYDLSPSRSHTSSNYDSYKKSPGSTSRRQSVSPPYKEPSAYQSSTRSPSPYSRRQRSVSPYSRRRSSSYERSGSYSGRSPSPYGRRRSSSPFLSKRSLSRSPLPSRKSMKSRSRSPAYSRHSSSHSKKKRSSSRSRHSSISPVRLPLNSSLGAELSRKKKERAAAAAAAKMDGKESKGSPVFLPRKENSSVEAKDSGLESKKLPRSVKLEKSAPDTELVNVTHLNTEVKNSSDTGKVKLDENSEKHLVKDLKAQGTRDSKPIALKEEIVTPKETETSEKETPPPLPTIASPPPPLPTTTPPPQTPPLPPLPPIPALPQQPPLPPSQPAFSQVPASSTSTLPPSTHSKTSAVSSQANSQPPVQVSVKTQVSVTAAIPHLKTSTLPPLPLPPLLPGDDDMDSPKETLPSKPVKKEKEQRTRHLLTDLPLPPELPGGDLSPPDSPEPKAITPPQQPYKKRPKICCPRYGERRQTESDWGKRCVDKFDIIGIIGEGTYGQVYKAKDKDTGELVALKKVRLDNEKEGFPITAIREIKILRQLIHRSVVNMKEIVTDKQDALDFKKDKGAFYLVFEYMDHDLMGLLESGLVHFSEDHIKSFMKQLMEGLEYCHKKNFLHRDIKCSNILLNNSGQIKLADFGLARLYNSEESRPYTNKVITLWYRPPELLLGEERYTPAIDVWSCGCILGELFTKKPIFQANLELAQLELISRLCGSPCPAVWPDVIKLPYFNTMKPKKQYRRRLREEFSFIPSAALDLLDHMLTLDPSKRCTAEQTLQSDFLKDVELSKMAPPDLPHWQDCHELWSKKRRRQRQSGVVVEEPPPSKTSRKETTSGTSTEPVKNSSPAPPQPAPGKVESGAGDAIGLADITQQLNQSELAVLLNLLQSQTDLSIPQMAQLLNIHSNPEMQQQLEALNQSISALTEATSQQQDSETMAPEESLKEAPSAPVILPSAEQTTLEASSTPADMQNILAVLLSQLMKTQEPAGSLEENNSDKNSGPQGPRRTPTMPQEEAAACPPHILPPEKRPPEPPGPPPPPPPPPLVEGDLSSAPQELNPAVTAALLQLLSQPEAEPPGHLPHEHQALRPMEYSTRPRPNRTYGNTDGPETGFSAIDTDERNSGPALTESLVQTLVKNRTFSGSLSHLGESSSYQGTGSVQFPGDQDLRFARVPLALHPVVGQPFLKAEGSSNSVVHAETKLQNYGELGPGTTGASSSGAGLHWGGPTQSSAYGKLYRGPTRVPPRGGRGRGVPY
T1 sequence (O75909 whole entry partner): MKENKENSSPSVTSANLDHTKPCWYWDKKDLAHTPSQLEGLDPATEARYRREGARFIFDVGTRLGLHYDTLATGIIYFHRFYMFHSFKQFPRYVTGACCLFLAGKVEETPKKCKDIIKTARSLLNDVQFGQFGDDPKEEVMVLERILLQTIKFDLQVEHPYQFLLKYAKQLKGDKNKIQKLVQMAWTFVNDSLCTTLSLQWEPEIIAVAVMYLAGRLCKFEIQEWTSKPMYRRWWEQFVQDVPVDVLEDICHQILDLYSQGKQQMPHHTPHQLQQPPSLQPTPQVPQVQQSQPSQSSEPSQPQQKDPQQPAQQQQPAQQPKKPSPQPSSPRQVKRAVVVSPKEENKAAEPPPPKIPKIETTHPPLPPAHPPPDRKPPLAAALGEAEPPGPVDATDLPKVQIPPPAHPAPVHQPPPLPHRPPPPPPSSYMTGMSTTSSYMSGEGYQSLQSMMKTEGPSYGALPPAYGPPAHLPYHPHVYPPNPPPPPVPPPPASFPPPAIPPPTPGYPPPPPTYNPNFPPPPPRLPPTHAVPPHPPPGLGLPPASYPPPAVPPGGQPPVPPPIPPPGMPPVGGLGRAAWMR
Method: (§1) Kinase activity was assessed using the kinase assay kits from BPS Bioscience for CDK1, CDK9 and CDK12 with Kinase Glo MAX in duplicates. Compounds were tested at a single concentration of 1 μM for CDK1 and CDK9 activity, and in a dilution ranging from 0.64 nM to 50 μM for CDK12 activity. Chemiluminescence was read using the Neo Synergy BioTek plate reader.

CDK9/CyclinT = molecular target: T2, CDK9/CyclinT (Homo sapiens, UniProt P50750); experiment: CDK9/CyclinT in vitro kinase activity, single concentration 1 μM; format: biochemical; details: single concentration 1 μM
T2 construct: purchased BPS Bioscience 79628
T2 sequence (P50750 whole entry): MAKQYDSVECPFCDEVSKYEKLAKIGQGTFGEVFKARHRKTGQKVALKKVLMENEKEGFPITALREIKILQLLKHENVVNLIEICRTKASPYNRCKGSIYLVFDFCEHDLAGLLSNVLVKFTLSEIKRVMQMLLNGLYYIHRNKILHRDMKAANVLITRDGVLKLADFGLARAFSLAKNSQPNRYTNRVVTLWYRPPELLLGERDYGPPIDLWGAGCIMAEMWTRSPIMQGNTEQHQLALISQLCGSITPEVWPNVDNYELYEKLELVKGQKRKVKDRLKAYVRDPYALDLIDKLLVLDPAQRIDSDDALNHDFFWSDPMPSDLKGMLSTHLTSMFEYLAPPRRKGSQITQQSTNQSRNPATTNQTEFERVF
T2 sequence (O60563 whole entry partner): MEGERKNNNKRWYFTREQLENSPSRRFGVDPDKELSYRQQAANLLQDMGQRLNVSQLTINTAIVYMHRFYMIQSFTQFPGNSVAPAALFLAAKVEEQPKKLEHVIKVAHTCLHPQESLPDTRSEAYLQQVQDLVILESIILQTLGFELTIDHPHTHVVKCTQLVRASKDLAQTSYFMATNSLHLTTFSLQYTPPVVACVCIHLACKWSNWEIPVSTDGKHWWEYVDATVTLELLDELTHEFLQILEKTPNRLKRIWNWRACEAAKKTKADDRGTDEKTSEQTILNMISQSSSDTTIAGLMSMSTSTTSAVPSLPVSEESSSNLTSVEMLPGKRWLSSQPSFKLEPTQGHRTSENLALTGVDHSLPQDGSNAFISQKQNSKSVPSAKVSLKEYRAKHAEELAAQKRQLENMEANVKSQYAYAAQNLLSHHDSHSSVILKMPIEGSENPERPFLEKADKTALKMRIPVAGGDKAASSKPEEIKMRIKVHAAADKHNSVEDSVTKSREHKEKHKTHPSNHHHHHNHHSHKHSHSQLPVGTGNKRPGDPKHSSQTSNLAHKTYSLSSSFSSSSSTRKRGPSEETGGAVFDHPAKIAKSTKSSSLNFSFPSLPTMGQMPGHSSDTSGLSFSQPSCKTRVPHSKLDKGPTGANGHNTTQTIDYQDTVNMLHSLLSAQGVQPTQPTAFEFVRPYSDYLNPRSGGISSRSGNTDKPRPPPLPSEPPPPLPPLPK
Method: as §1

[1] = test system: OCI-AML5 cells expressing shRNAs targeting CDK1, 2, 4, 7, 9, cyclin K; experiment: Dose response in OCI-AML5 expressing shRNAs targeting CDK1, 2, 4, 7, 9, cyclin K or control; format: cell-based, H. sapiens; details: for IC50: OCI-AML5, 4 days

## CC[C@H](CO)Nc1nc(NCc2ccc(-c3ccccn3)cc2)c2ncn(C(C)C)c2n1 [CR8]
Primary AML specimens; primary AML specimen 03H109
  IC50: 48.5 nM
Primary AML specimens; primary AML specimen 04H055
  IC50: 123 nM
Primary AML specimens; primary AML specimen 04H096
  IC50: 55 nM
Primary AML specimens; primary AML specimen 04H138
  IC50: 127 nM
Primary AML specimens; primary AML specimen 05H113
  IC50: 48.9 nM
Primary AML specimens; primary AML specimen 05H149
  IC50: 66.3 nM
Primary AML specimens; primary AML specimen 05H193
  IC50: 63.3 nM
Primary AML specimens; primary AML specimen 06H088
  IC50: 74.7 nM
Primary AML specimens; primary AML specimen 06H117
  IC50: 60.2 nM
Primary AML specimens; primary AML specimen 06H151
  IC50: 43 nM
Primary AML specimens; primary AML specimen 07H003
  IC50: 129 nM
Primary AML specimens; primary AML specimen 07H131
  IC50: 154 nM
Primary AML specimens; primary AML specimen 07H144
  IC50: 51.9 nM
Primary AML specimens; primary AML specimen 07H155
  IC50: 144 nM
Primary AML specimens; primary AML specimen 08H018
  IC50: 124 nM
Primary AML specimens; primary AML specimen 08H021
  IC50: 53.6 nM
Primary AML specimens; primary AML specimen 08H056
  IC50: 136 nM
Primary AML specimens; primary AML specimen 08H063
  IC50: 149 nM
Primary AML specimens; primary AML specimen 08H085
  IC50: 63.1 nM
Primary AML specimens; primary AML specimen 08H108
  IC50: 126 nM
Primary AML specimens; primary AML specimen 08H118
  IC50: 50.2 nM
Primary AML specimens; primary AML specimen 09H016
  IC50: 51.5 nM
Primary AML specimens; primary AML specimen 09H070
  IC50: 140 nM
Primary AML specimens; primary AML specimen 10H014
  IC50: 38.9 nM
Primary AML specimens; primary AML specimen 10H046
  IC50: 59.9 nM
Primary AML specimens; primary AML specimen 10H107
  IC50: 76.8 nM
Primary AML specimens; primary AML specimen 10H127
  IC50: 93.5 nM
Primary AML specimens; primary AML specimen 10H161
  IC50: 75.2 nM
Primary AML specimens; primary AML specimen 10H174
  IC50: 54.8 nM
Primary AML specimens; primary AML specimen 11H008
  IC50: 85.8 nM
Primary AML specimens; primary AML specimen 11H019
  IC50: 69.4 nM
Primary AML specimens; primary AML specimen 11H170
  IC50: 162 nM
Primary AML specimens; primary AML specimen 11H217
  IC50: 128 nM
Primary AML specimens; primary AML specimen 11H232
  IC50: 70.1 nM
Primary AML specimens; primary AML specimen 12H033
  IC50: 107 nM
Primary AML specimens; primary AML specimen 12H055
  IC50: 100 nM
Primary AML specimens; primary AML specimen 12H148
  IC50: 74.2 nM
Primary AML specimens; primary AML specimen 13H053
  IC50: 133 nM
Primary AML specimens; primary AML specimen 15H045
  IC50: 43.7 nM
Primary AML specimens; primary AML specimen 17H065
  IC50: 92.3 nM
OCI-AML5 cells
  IC50: 56 nM
Cyclin KeGFP; OCI-AML5 G7 clone, 3 h, 10 μM, normalized to DMSO (=100)
  MFI of cyclin KeGFP over mCherry: 13.6 and 15.4 and 15.2 and 15.3 and 14.9
Cyclin KeGFP; cyclin K-eGFP reporter
  % degradation cyclin K-eGFP: 86%
CDK12/Cyclin K; Log10 (uM) 1
  in vitro inhibition of CDK12/Cyclin K activity: 58.77 and 64.89 and 109.89
CDK12/Cyclin K; Log10 (uM) 1.69897
  in vitro inhibition of CDK12/Cyclin K activity: 81.16 and 77.06 and 130.98
CDK12/Cyclin K; Log10 (uM) -0.39794
  in vitro inhibition of CDK12/Cyclin K activity: 16.88 and 18.59 and 15.49
CDK9/CyclinT
  % CDK9 inhibition: 100%
[1]; read-out: IC50, sh CDK1
  IC50: 69.6 nM and 111 nM and 91.9 nM
[1]; read-out: IC50, sh CDK2
  IC50: 67.6 nM and 80.5 nM and 96.4 nM
[1]; read-out: IC50, sh CDK4
  IC50: 61.8 nM and 75.2 nM and 63.5 nM
[1]; read-out: IC50, sh CDK7
  IC50: 61.1 nM and 84.1 nM and 69.1 nM
[1]; read-out: IC50, sh CDK9
  IC50: 55.2 nM and 60.8 nM and 44.9 nM
[1]; read-out: IC50, sh Cyclin K
  IC50: 13.1 nM and 15.5 nM and 20.6 nM
[1]; read-out: IC50, sh ctrl
  IC50: 55.8 nM and 70.4 nM and 56.2 nM
[1]; class from shRNA IC50 profile and cyclin K-eGFP degradation
  Class: 1
